# Like-named read-outs stand apart in the source and are kept apart here.
# Tests used:
# FGR = target: T1, FGR (Homo sapiens, UniProt P09769); test: CEREP protein kinase assay; assay type: biochemical
# T1 construct: purchased CEREP Panlabs (Eurofins)
# KIT = target: T2, KIT (Homo sapiens, UniProt P10721); test: CEREP protein kinase assay; assay type: biochemical
# T2 construct: purchased CEREP Panlabs (Eurofins)
# RSK3 = target: T3, RSK3 (Homo sapiens, UniProt Q15349); test: CEREP protein kinase assay; assay type: biochemical
# T3 construct: purchased CEREP Panlabs (Eurofins)
# MDA-MB-231 = test: In vitro proliferation assay, Cell Titer Glo; assay type: cell-based; details: Homo sapiens
# Excerpt: Cell Titer Glo measures ATP, thus the IC50s represent both the effect on purine production and cell proliferation, which are related. […] Folates are actively taken up in cells by reduced folate carrier (SLC19A1), proton-coupled folate transporter (SLC46A1), and the FOLR1 folate receptor[17]. Once inside the cell, folates are trapped by polyglutamation catalyzed by folylpolyglutamate synthetase (FPGS). […] Gene expression data for ATIC, GART, APRT, HPRT, FOLR1, SLC19A1, SLC46A1 & FPGS are shown in Fig. 2, since these genes were anticipated to predict sensitivity. […] The MDA-MB-231 cell line is reduced folate carrier (SLC19A1) negative due to epigenetic silencing.
# Cells were cultured using recommended culture conditions unless noted otherwise (Supplemental Table 3). Cells were plated, dosed with compound and incubated at 37 °C for approximately 2 doubling times as determined for each cell line. Cell Titer Glo (Promega) assay was used to measure proliferation according to manufacturer’s recommendations by measuring luminescence with Flexstation3 (Molecular Devices) with 500 ms integration time. […] The % response was fit to a four-parameter logistic equation using ACTIVITYBASE 4.0 to determine the absolute IC50 values.
# STK33 = target: T4, STK33 (Homo sapiens, UniProt Q9BYT3); test: CEREP protein kinase assay; assay type: biochemical
# T4 construct: purchased CEREP Panlabs (Eurofins)
# CHK2 = target: T5, CHK2 (Homo sapiens, UniProt O96017); test: CEREP protein kinase assay; assay type: biochemical
# T5 construct: purchased CEREP Panlabs (Eurofins)
# A9 murine tumors = test: Pharmacodynamic response of tumor metabolites, single PO dose, standard chow; assay type: in vivo, mouse
# Excerpt: (§1) Figure 4 Pharmacodynamic response of ZMP (purple), AICAR (blue), […] (green), dUMP (red), AMP (aqua) & GMP (orange) metabolites in tumors following a single PO dose of LSN3213128 in athymic nude mice.
# [1] = tested on: MDA-MB-231met2 xenografts; test: as above; assay type: in vivo, mouse
# Excerpt: as §1
# PDK1 = target: T6, PDK1 (Homo sapiens, UniProt O15530); test: CEREP protein kinase assay; assay type: biochemical
# T6 construct: purchased CEREP Panlabs (Eurofins)
# T6 sequence (O15530 1-556): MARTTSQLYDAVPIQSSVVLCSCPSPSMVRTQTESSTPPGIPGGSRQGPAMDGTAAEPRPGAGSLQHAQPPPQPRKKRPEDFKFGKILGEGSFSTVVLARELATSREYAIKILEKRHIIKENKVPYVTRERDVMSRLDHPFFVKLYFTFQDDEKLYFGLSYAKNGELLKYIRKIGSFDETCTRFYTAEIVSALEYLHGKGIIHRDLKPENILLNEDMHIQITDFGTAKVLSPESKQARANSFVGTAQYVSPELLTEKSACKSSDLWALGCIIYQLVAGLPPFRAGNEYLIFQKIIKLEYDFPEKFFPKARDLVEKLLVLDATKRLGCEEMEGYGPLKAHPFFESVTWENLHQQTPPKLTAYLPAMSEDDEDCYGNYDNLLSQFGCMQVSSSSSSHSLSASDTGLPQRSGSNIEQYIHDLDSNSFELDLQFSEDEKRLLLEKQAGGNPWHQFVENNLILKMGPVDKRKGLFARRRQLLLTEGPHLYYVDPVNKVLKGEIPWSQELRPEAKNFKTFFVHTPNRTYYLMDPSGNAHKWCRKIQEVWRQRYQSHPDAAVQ
# FGFR4 = target: T7, FGFR4 (Homo sapiens, UniProt P22455); test: CEREP protein kinase assay; assay type: biochemical
# T7 construct: purchased CEREP Panlabs (Eurofins)
# AXL = target: T8, AXL (Homo sapiens, UniProt P30530); test: CEREP protein kinase assay; assay type: biochemical
# T8 construct: purchased CEREP Panlabs (Eurofins)
# T8 sequence (P30530 26-894): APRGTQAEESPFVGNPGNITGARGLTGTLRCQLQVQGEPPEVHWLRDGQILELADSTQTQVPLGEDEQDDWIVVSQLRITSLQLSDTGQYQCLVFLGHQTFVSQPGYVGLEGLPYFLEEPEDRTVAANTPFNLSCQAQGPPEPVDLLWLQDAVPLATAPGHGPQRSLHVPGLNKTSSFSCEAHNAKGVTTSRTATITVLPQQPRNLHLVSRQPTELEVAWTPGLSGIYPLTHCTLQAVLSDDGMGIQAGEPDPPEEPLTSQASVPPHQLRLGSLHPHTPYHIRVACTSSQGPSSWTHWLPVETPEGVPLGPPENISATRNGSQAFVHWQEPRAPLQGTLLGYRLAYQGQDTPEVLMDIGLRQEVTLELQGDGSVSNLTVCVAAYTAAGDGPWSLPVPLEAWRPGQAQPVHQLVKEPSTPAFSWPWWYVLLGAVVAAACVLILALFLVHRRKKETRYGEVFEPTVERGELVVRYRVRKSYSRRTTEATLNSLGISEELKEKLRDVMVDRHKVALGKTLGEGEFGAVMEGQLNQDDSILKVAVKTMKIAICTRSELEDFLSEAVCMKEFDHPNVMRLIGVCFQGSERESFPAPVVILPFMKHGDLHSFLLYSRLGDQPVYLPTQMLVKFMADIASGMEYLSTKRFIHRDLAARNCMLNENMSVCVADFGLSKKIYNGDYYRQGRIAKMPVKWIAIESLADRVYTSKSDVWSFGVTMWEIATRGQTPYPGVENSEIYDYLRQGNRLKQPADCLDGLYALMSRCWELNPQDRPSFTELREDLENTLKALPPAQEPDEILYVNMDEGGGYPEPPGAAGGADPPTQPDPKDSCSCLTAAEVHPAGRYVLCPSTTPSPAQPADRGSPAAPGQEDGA
# [2] = MDA-MB-231met2 tumors, 4 h post treatment
# T5 sequence (O96017 whole entry): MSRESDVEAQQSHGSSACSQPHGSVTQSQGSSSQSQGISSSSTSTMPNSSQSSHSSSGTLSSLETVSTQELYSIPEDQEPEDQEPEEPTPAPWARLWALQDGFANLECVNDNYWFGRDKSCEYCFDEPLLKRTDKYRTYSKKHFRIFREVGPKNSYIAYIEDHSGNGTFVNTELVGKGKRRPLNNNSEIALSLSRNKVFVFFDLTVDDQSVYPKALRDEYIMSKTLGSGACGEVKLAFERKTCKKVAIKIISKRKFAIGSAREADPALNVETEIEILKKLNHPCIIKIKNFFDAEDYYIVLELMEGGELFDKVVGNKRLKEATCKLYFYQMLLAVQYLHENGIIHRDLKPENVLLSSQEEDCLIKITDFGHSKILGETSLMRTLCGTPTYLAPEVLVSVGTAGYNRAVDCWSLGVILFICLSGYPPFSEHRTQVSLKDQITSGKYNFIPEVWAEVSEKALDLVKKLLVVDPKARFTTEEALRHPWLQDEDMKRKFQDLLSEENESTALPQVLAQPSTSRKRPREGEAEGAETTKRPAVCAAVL
# T7 sequence (P22455 22-802): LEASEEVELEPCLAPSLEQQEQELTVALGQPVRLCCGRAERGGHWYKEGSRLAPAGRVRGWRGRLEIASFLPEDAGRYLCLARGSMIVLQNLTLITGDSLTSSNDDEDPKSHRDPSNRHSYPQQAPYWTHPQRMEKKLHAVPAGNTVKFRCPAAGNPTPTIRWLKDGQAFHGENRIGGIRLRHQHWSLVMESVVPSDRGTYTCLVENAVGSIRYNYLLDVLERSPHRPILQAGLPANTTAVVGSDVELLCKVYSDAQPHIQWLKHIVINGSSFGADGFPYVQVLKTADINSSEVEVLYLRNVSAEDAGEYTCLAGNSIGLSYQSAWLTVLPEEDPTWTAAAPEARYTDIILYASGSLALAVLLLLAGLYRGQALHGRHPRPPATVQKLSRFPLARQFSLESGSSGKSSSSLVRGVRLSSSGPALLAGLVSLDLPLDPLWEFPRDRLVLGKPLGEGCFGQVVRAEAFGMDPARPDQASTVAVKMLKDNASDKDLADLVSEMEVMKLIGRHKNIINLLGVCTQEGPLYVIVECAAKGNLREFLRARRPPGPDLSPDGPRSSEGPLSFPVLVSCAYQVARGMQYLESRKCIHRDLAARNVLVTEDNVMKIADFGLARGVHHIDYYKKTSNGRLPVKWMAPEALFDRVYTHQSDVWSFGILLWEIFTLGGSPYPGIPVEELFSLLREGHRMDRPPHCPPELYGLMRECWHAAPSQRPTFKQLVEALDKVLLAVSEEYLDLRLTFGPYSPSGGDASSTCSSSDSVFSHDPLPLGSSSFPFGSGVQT
# T1 sequence (P09769 whole entry): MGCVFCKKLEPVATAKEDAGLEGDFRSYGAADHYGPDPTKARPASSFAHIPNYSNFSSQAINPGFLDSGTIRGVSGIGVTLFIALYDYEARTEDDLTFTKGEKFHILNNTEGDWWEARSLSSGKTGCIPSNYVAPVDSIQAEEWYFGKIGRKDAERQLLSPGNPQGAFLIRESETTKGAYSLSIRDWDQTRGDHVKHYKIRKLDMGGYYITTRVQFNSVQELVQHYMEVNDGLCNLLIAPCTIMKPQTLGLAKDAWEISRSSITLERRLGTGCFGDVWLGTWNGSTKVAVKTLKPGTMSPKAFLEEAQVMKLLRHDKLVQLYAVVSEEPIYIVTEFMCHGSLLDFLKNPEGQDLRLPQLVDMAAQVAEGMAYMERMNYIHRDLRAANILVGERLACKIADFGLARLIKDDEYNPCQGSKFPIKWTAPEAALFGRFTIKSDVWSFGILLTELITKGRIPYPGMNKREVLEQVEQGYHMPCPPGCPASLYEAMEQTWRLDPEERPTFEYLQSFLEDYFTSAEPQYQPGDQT
# T3 sequence (Q15349 whole entry): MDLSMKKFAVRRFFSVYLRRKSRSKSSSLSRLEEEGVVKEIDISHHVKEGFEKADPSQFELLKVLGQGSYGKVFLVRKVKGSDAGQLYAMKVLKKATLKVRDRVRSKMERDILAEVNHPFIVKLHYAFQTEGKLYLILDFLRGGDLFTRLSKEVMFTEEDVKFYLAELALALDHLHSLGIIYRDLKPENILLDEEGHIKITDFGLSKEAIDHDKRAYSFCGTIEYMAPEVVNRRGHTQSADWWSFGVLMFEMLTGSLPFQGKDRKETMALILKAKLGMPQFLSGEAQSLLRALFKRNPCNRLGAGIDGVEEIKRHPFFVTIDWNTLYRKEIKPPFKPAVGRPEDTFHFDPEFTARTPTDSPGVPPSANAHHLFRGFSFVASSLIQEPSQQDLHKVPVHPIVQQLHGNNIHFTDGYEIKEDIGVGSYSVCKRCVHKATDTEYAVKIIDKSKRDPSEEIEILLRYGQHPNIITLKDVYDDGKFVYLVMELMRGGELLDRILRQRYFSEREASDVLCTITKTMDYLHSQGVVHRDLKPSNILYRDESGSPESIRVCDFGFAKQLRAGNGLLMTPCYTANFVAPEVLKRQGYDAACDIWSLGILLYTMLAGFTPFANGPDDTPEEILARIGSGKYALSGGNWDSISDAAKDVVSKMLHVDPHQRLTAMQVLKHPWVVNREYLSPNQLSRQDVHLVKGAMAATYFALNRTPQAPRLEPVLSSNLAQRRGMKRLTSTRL
# T2 sequence (P10721 26-976): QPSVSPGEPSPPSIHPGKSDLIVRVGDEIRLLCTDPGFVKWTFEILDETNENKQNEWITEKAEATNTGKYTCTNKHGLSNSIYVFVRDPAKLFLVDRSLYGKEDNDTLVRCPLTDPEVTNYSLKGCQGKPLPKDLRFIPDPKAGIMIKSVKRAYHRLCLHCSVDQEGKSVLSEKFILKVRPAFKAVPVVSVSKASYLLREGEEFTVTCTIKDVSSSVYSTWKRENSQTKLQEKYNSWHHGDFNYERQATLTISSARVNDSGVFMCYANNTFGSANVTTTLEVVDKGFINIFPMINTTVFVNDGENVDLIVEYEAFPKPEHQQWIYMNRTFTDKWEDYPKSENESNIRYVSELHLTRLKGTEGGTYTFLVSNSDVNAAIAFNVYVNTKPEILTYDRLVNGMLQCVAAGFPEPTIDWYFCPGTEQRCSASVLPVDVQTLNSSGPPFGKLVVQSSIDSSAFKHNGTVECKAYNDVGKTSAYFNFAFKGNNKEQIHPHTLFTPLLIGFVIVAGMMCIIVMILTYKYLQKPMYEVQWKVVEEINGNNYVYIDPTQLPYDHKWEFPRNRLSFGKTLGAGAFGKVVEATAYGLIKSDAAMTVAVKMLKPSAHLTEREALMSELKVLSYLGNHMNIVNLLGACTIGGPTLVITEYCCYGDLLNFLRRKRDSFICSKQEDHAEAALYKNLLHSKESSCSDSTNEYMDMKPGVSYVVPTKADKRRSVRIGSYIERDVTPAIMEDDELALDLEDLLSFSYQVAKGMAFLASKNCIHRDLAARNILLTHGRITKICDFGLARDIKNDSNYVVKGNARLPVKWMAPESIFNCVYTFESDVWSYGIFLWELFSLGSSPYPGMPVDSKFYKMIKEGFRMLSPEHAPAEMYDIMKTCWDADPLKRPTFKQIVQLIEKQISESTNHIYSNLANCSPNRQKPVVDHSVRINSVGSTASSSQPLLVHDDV
# T4 sequence (Q9BYT3 whole entry): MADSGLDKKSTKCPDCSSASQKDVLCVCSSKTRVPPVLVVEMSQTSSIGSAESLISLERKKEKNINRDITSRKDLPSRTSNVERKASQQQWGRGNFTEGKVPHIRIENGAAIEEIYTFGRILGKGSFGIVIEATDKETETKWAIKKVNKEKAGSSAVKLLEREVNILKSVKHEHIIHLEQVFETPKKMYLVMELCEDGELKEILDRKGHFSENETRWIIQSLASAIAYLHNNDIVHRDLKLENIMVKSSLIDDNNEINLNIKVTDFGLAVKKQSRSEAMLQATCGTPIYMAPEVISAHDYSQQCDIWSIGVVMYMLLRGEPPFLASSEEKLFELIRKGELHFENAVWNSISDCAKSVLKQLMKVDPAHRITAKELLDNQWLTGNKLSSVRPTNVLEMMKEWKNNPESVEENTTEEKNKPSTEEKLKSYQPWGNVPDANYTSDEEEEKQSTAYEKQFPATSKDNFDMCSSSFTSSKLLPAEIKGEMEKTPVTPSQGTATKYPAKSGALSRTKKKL
structure (smiles),measurement,setting,value
"O=c1[nH]ccc2cc(F)c(NS(=O)(=O)c3ccc(N4CC[C@@H](O)C4)s3)cc12 [LSN3213128, N-(6-Fluoro-1-oxo-1,2-dihydroisoquinolin-7-yl)-5-[(3R)-3-hydroxypyrrolidin-1-yl]thiophene-2-sulfonamide]",inhibition at 0.2 µM,FGR; @ 0.2 uM,-8.47%
same,inhibition at 2 µM,FGR; @ 2 uM,3.62%
same,inhibition at 20 µM,FGR; @ 20 uM,42.3%
same,inhibition at 0.2 µM,KIT; @ 0.2 uM,-6.65%
same,inhibition at 2 µM,KIT; @ 2 uM,6.65%
same,inhibition at 20 µM,KIT; @ 20 uM,42%
same,inhibition at 0.2 µM,RSK3; @ 0.2 uM,-5.85%
same,inhibition at 2 µM,RSK3; @ 2 uM,-1.32%
same,inhibition at 20 µM,RSK3; @ 20 uM,9.07%
same,IC50,"MDA-MB-231; MDA-MB-231, breast, read-out: ABS_IC50_VALUE",0.02 µM
same,IC50,"MDA-MB-231; MDA-MB-231, Cell Titer Glo, two doubling times, read-out: IC50 by CTG",0.0076 µM
same,inhibition at 0.2 µM,STK33; @ 0.2 uM,-5.61%
same,inhibition at 2 µM,STK33; @ 2 uM,15.3%
same,inhibition at 20 µM,STK33; @ 20 uM,-1.42%
same,inhibition at 0.2 µM,CHK2; @ 0.2 uM,-9.59%
same,inhibition at 2 µM,CHK2; @ 2 uM,14.3%
same,inhibition at 20 µM,CHK2; @ 20 uM,8.93%
same,dose after which tumor ZMP response appeared to saturate,"A9 murine tumors; nude mice on standard chow, 4 h post PO dose",30 mg/kg
same,tumor dUMP levels,"A9 murine tumors; standard chow, 4 h, up to 100 mg/kg",did not rise
same,change in tumor ZMP,[1]; [2],15 fold
same,change in tumor purine levels (AMP and GMP),[1]; [2],twofold
same,dose at which tumor ZMP response appeared to saturate,"[1]; MDA-MB-231met2 xenografts, nude mice on standard chow, 4 h post PO dose",10 mg/kg
same,tumor dUMP levels,"[1]; MDA-MB-231met2 xenografts, standard chow, 4 h, up to 100 mg/kg",did not rise
same,inhibition at 0.2 µM,PDK1; @ 0.2 uM,14.1%
same,inhibition at 2 µM,PDK1; @ 2 uM,15.8%
same,inhibition at 20 µM,PDK1; @ 20 uM,26.8%
same,inhibition at 0.2 µM,FGFR4; @ 0.2 uM,0.737%
same,inhibition at 2 µM,FGFR4; @ 2 uM,13.2%
same,inhibition at 20 µM,FGFR4; @ 20 uM,8.82%
same,inhibition at 0.2 µM,AXL; @ 0.2 uM,-9.2%
same,inhibition at 2 µM,AXL; @ 2 uM,2.93%
same,inhibition at 20 µM,AXL; @ 20 uM,22.2%
